Experiments:
[1] = Human liver microsomal stability; format: in vitro ADME; conditions: Human Liver Microsomes 0.76 mg/mL, 1 μM compound, 37° C.; for Compound remaining (%) at 4 min: pH 7.4, 4 min; for Compound remaining (%) at 30 min: pH 7.4, 30 min
Experimental: (§1) Pooled human liver or intestinal microsomes (final concentration 0.76 mg/mL) were diluted in 100 mM potassium phosphate buffer (pH 7.4) and preincubated at 37° C. The compounds of interest were dissolved in DMSO (30 mM), diluted to 100 μM in acetonitrile or methanol, and added to the microsomal incubations to achieve a final concentration of 1 μM with 1% or less final organic solvent. The mixtures were incubated for 30 min at 37° C. Aliquots were removed at predetermined times and quenched with an excess acetonitrile, containing an internal standard, on ice. Following centrifugation, the analytes were quantified by liquid chromatography-tandem mass spectrometry (LC-MS/MS). The compound remaining (%) was calculated from the analyte area ratio at the predetermined time/initial analyte area ratio at time 0×100.

[2] = system: Apolipoprotein B Secretion from HepG2 Cells; assay: Inhibition of Apolipoprotein B secretion from HepG2 cells (ELISA); format: cell-based, human; conditions: 22-24 hours incubation, ApoB ELISA, Low/High IC50 columns give the 95% confidence interval
Experimental: Inhibition of Apolipoprotein B Secretion from HepG2 Cells
To assess the inhibitory effect of the compounds of the invention on ApoB production, an endogenously ApoB producing cell line, HEPG2, was implemented in an in vitro ELISA assay. HEPG2 cells are plated at 25,000 per well (96-well plates) in media consisting of DMEM Low Glucose, 1% NEAA (non-essential amino acids), 10% FBS (heat inactivated), 1% L-Glutamine, and 1% Antimycotic-Antibiotic and incubated for 16-18 hours at 37° C. and 5% CO2. After the 16-18 hour incubation, a 12 point half-log serial of the inhibitor (1000 nM-0.003 nM) is prepared, and 1.5 ul of the serial dilution is added to HEPG2 cells, which have had their media decanted and replaced with 148 ul of fresh media, and the cells are incubated for 22-24 hours at 37° C. and 5% CO2. Two and a half hours before the 22-24 hour incubation period is completed, Nunc Maxisorp plates are coated with 100 ul of primary (coating) antibody (goat anti-apoB), diluting to a ratio of 1:1000 in 1% Carbonate-Bicarbonate Coating Buffer and incubated for at least 2 hours at room temperature before the primary antibody is decanted and the wells of the microplate are washed with 200 ul of washing buffer (1% PBS, 0.05% Tween20). Next, 200 ul of blocking buffer (1% PBS, 1:500 Western Block, 5 mg/ml BSA) is added to the wells of the microplate, and incubated for at least 30 mins. Following the 22-24 hours incubation period, cell plates are removed from the incubator, 20 ul of supernatant from each well is aspirated, added to a corresponding well in 96 well plate containing 140 ul of diluent (1:2-Blocking Buffer: Washing Buffer), and mixed. Then, 120 ul is aspirated from the dilutent-supernatant plate, added to the blocked Nunc Maxisorp 96 well plate, and placed at room temperature on a shaker to mix for at least 2 hours. The secondary (capture) antibody (mouse anti-human apoB) is prepared at a ratio of 1:4000, and the detection antibody (goat anti-mouse HRP conjugated antibody) at a ratio of 1:10,000. For each antibody, 100 ul is added to each well of the microplate and the microplate is incubated at room temperature for 2 hours, washing the microplates between each antibody addition. Colorimetric development is achieved by adding 50 ul of TMB reagent to each well, incubating for 5 mins at room temperature, then adding 50 ul of 2M Sulfuric Acid to each well. Absorbance at 450 nm is monitored in an Envision plate reader to measure the amount of ApoB formed.
Results reported as average IC50, low and high IC50 range (95% confidence interval).

[3] = Human intestinal microsomal stability; format: in vitro ADME; conditions: Human Intestinal Microsomes 0.76 mg/mL, 1 μM compound, 37° C.; for Compound remaining (%) at 4 min: pH 7.4, 4 min; for Compound remaining (%) at 30 min: pH 7.4, 30 min
Experimental: as §1

[4] = Homo sapiens, HepG2, HepG2 cells

CCOC(=O)[C@]1(COC(=O)Cc2ccc(NC(=O)c3ccc(OC)cc3-c3ccc(C(F)(F)F)cc3)c(C(=O)N(C)C)c2)c2ccccc2C(=O)N1C [Example 70, ethyl (1R)-1-({2-[3-(dimethylcarbamoyl)-4-({[5-methoxy-4′-(trifluoromethyl)biphenyl-2-yl]carbonyl}amino)phenyl]acetoxy}methyl)-2-methyl-3-oxoisoindoline-1-carboxylate]
Compound remaining (%) at 4 min [1]: 61% | Compound remaining (%) at 30 min [1]: 6.4% | IC50 [2, 4]: 0.414 nM | Compound remaining (%) at 4 min [3]: 98% | Compound remaining (%) at 30 min [3]: 96%

CCOC(=O)C1(COC(=O)Cc2ccc(NC(=O)c3cccc(OC)c3-c3ccc(C(F)(F)F)cc3)c(C(=O)N(C)C)c2)CCc2cccnc21 (single isomer, unassigned) [Example 61, ethyl 7-({2-[3-(dimethylcarbamoyl)-4-({[6-methoxy-4′-(trifluoromethyl)biphenyl-2-yl]carbonyl}amino)phenyl]acetoxy}methyl)-6,7-dihydro-5H-cyclopenta[b]pyridine-7-carboxylate]
Compound remaining (%) at 4 min [1]: 65% | Compound remaining (%) at 30 min [1]: 4.7% | IC50 [2, 4]: 0.395 nM | Compound remaining (%) at 4 min [3]: 106% | Compound remaining (%) at 30 min [3]: 106%

CCOC(=O)C1(COC(=O)Cc2ccc(NC(=O)c3ccccc3-c3ccc(OC(C)C)cc3)c(C(=O)N(C)C)c2)CCc2cccnc21 (single isomer, unassigned) [Example 60, ethyl 7-({2-[3-(dimethylcarbamoyl)-4-({[4′-isopropoxybiphenyl-2-yl)carbonyl]amino}phenyl]acetoxy}methyl)-6,7-dihydro-5H-cyclopenta[b]pyridine-7-carboxylate]
Compound remaining (%) at 4 min [1]: 110% | Compound remaining (%) at 30 min [1]: 8.5% | IC50 [2, 4]: 0.535 nM | Compound remaining (%) at 4 min [3]: 107% | Compound remaining (%) at 30 min [3]: 100%

CCOC(=O)[C@]1(COC(=O)Cc2ccc(NC(=O)c3ccccc3-c3ccc(OC(C)C)cc3)c(C(=O)N(C)C)c2)c2ccccc2C(=O)N1C [Example 50, Ethyl (1R)-1-({2-[3-(dimethylcarbamoyl)-4-{[(4′-isopropoxybiphenyl-2-yl)carbonyl]amino}phenyl]acetoxy}methyl)-2-methyl-3-oxoisoindoline-1-carboxylate]
Compound remaining (%) at 4 min [1]: 48% | Compound remaining (%) at 30 min [1]: 3.7% | IC50 [2, 4]: 0.124 nM | Compound remaining (%) at 4 min [3]: 100% | Compound remaining (%) at 30 min [3]: 92%

CCOC(=O)C1(COC(=O)Cc2ccc(NC(=O)c3ccc(C)cc3-c3ccc(C(F)(F)F)cc3)c(C(=O)N(C)C)c2)c2ccccc2C(=O)N1C (single isomer, unassigned) [Example 56, ethyl 1-({2-[3-(dimethylcarbamoyl)-4-({[5-methyl-4′-(trifluoromethyl)biphenyl-2-yl]carbonyl}amino)phenyl]acetoxy}methyl)-2-methyl-3-oxoisoindoline-1-carboxylate]
Compound remaining (%) at 4 min [1]: 38% | Compound remaining (%) at 30 min [1]: 3% | IC50 [2, 4]: 0.147 nM | Compound remaining (%) at 4 min [3]: 100% | Compound remaining (%) at 30 min [3]: 87%

CCOC(=O)[C@]1(COC(=O)Cc2ccc(NC(=O)c3cccc(OC)c3-c3ccc(C(F)(F)F)cc3)c(C(=O)N(C)C)c2)c2ccccc2C(=O)N1C [Example 71, ethyl (1R)-1-({2-[3-(dimethylcarbamoyl)-4-({[6-methoxy-4′-(trifluoromethyl)biphenyl-2-yl]carbonyl}amino)phenyl]acetoxy}methyl)-2-methyl-3-oxoisoindoline-1-carboxylate]
Compound remaining (%) at 4 min [1]: 45% | Compound remaining (%) at 30 min [1]: 5.3% | IC50 [2, 4]: 0.176 nM | Compound remaining (%) at 4 min [3]: 125% | Compound remaining (%) at 30 min [3]: 94%

CCOC(=O)[C@]1(COC(=O)Cc2ccc(NC(=O)c3cccc(C)c3-c3ccc(C(F)(F)F)cc3)c(C(=O)N(C)C)c2)c2ccccc2C(=O)N1C [Example 49, Ethyl (1R)-1-({2-[3-(Dimethylcarbamoyl)-4-({[6-methyl-4′-(trifluoromethyl)biphenyl-2-yl]carbonyl}amino)phenyl]acetoxy}methyl)-2-methyl-3-oxoisoindoline-1-carboxylate]
Compound remaining (%) at 4 min [1]: 42% | Compound remaining (%) at 30 min [1]: 2.7% | IC50 [2, 4]: 0.242 nM | Compound remaining (%) at 4 min [3]: 100% | Compound remaining (%) at 30 min [3]: 83%

CCOC(=O)[C@]1(COC(=O)Cc2ccc(NC(=O)c3ccc(C)cc3-c3ccc(OC(C)C)cc3)c(C(=O)N(C)C)c2)c2ccccc2C(=O)N1C [Example 72, ethyl (1R)-1-({2-[3-(dimethylcarbamoyl)-4-{[(4′-isopropoxy-5-methylbiphenyl-2-yl)carbonyl]amino}phenyl]acetoxy}methyl)-2-methyl-3-oxoisoindoline-1-carboxylate]
Compound remaining (%) at 4 min [1]: 71% | Compound remaining (%) at 30 min [1]: 9.2% | IC50 [2, 4]: 0.119 nM | Compound remaining (%) at 4 min [3]: 125% | Compound remaining (%) at 30 min [3]: 100%

CCOC(=O)C1(COC(=O)Cc2ccc(NC(=O)c3ccc(C)cc3-c3ccc(C(F)(F)F)cc3)c(C(=O)N(C)C)c2)CCc2cccnc21 (single isomer, unassigned) [Example 59, ethyl 7-({2-[3-(dimethylcarbamoyl)-4-({[5-methyl-4′-(trifluoromethyl)biphenyl-2-yl]carbonyl}amino)phenyl]acetoxy}methyl)-6,7-dihydro-5H-cyclopenta[b]pyridine-7-carboxylate]
Compound remaining (%) at 4 min [1]: 22% | Compound remaining (%) at 30 min [1]: 1.1% | IC50 [2, 4]: 0.712 nM | Compound remaining (%) at 4 min [3]: 102%

CCOC(=O)C1(COC(=O)Cc2ccc(NC(=O)c3cccc(C)c3-c3ccc(C(C)C)cc3)c(C(=O)N(C)C)c2)c2ccccc2C(=O)N1C (stereo not shown) [Example 53]
IC50 [2, 4]: 0.242 nM

CCOC(=O)C1(COC(=O)Cc2ccc(NC(=O)c3ccc(C(F)(F)F)cc3-c3ccc(C(F)(F)F)cc3)c(C(=O)N(C)C)c2)OC(=O)c2ccccc21 (stereo not shown) [Example 3]
IC50 [2, 4]: 15.7 nM

CCOC(=O)C1(COC(=O)Cc2ccc(NC(=O)c3ccc(C(F)(F)F)cc3-c3ccc(C(F)(F)F)cc3)c(C(=O)N(C)C)c2)c2ccccc2C(=O)N1C (stereo not shown) [Example 55, ethyll-({2-[4-({[4′,5-bis(trifluoromethyl)biphenyl-2-yl]carbonyl}amino)-3-(dimethylcarbamoyl)phenyl]acetoxy}methyl)-2-methyl-3-oxoisoindoline-1-carboxylate]
IC50 [2, 4]: 0.154 nM

CCOC(=O)C1(COC(=O)Cc2ccc(NC(=O)c3ccccc3-c3ccc(C(F)(F)F)cc3)c(Cl)c2)c2ccccc2C(=O)N1C (stereo not shown) [Example 6]
IC50 [2, 4]: 4.77 nM

CCOC(=O)C1(COC(=O)Cc2ccc(NC(=O)c3ccccc3-c3ccc(C(F)(F)F)cc3)c(C(=O)N(C)C)c2)CCc2cccnc21 (stereo not shown) [Example 39]
IC50 ([2]; HepG2 cells): 2.34 nM

Reference: patent US20130072519A1, “2-PHENYL BENZOYLAMIDES” (priority 2010, published 2013)
